Results taken from publication PMC5705213, “Immunoproteasome functions explained by divergence in cleavage specificity and regulation” (eLife, 2017).
Each block holds one molecule with its values, some of them ahead of it. *1 amine or outer side, *2 acyl side, *3 side chain or, on linkers, in order; H or OH if unused. Where a SMILES comes first, the peptide text is derived from it. The star is where a group is joined. ACC = NC(=O)Cc1cc(=O)oc2cc(N*)ccc12; AMC = Cc1cc(=O)oc2cc(N*)ccc12; Suc = O=C(CCC(=O)[*:2])[*:1]

Key:
[1] = target: T1, human immunoproteasome core particle (i20S) (Homo sapiens, UniProt P20618+P28062); experiment: Purified proteasome activity assay with fluorogenic substrates, SDS-activated i20S; format: biochemical
T1 construct: purchased Boston Biochem E-370
Experimental: Non-prime-side substrate specificity profiling was performed with a complete, diverse library of 160,000 fluorogenic substrates containing the general structure acetyl-P4-P3-P2-P1-(7-amino-4-carbamoylmethylcourmarin, ACC) ([Harris et al., 2000]). For each sub-library, 10 nM human i20S or c20S underwent SDS pre-activation for 1 hr at room temperature in assay buffer (20 mM Tris, pH 8.0, 0.5 mM EDTA) containing 0.03% SDS. […] Activity assays were carried out over 1 hr following two-fold sample dilution in the same 0.03% SDS-containing buffer that also contained a 250 μM final concentration of PS-SCL substrate pool. Activity was recorded in black 96-well round bottom plates (Costar, COrning, NY) using a BioTek Synergy H4 Hybrid Multi-Mode Microplate Reader set to λex = 380 nm and λem = 460 nm (gain = 63). Initial velocity in relative fluorescence units per second (RFU/s) was calculated using a linear fit of the progress curves with Gen5 software v.2.03.
Activity assays with individual fluorogenic substrates were carried out as described above for the PS-SCL assays using final concentrations of 5 nM SDS-activated i20S or c20S and 10 μM substrate except where noted below. The commercial substrates Suc-LLVY-AMC, Ac-WLA-AMC (Boston Biochem, S-330), and Ac-ANW-AMC (Boston Biochem, S-320) were used as supplied. To convert cleaved substrate RFU to free AMC or ACC dye concentration, calibration curves were prepared through total enzymatic hydrolysis of ACC- or AMC-containing peptides that had been quantified through amino acid analysis (Alphalyse, Inc.). Substrate selectivity of PA28α- and SDS-activated 20S proteasomes was compared following 1 hr pre-incubation at room temperature either in the presence of 0.03% SDS or with 12 molar equivalents of PA28α activator in the absence of SDS. For substrate selectivity assays with mixed, purified proteasomes, i20S and c20S underwent individual SDS pre-activation prior to assaying with 5 nM final concentration of pooled 20S. Proteasome ratio assays were performed with 10 μM EWFW-ACC, 30 μM iso-VQA-ACC, and 30 μM Suc-LLVY-AMC. All activity measurements were recorded on the BioTek plate reader described above using λex = 380 nm and λem = 460 nm (gain = 63) for ACC substrates and Suc-LLVY-AMC; 345 nm and λem = 445 nm (gain = 63) for Ac-WLA-AMC and Ac-ANW-AMC; and λex = 328 nm and λem = 393 nm (gain = 75) for the GEWHWPS IQ substrate. Michaelis-Menten calculations were performed using a non-linear fit in Prism v.6.0.

LMP7 / β5 = experiment: MOLT-4 lysate proteasome activity assay, IC50, LLVY-AMC substrate; format: biochemical, human; conditions: 1 hr pre-incubation, 30 μM Suc-LLVY-AMC, read-out: IC50, detection method LLVY-AMC, subunit LMP7 / β5
Experimental: Three lysates containing varied proteasome ratios (whole blood, PBMCs, and the MOLT-4 cell line) were assayed in the absence or presence of proteasome inhibitors as described above. Lysates were generated by washing cells in PBS and lysing the resulting cell pellet in a two-fold greater volume of cold lysis buffer (20 mM Tris, pH 8.0, 5 mM EDTA). Total protein concentration was determined using the BCA Protein Assay Kit (Thermo Scientific Pierce) with bovine serum albumin (BSA) as the protein standard. […] Activity assays were carried out over 1 hr following two-fold sample dilution in the same assay buffer containing final concentrations of 10 μM NH2-EWFW-ACC, 30 μM iso-VQA-ACC, or 30 μM Suc-LLVY-AMC. Activity measurements were recorded on the BioTek plate reader described above in 384-well plates using either λex = 380 nm and λem = 460 nm (gain = 85) for the ACC substrates or λex = 345 nm and λem = 445 nm (gain = 85) for the AMC substrate.

SUP-B15 cell line [2] = experiment: Ubiquitin western blot after one-hour inhibitor pulse treatment; format: cell-based, human; conditions: ONX 0914 200 nM or PR-825 100 or 125 nM
Experimental: (§1) SUP-B15 and MOLT-4 cells were seeded at 2 × 10^6/mL in RPMI media containing 10% FBS 24 hr prior to inhibition assays; PBMC vials were thawed and seeded at 4.4 × 10^6/mL in RPMI media with 10% FBS 3 hr prior to inhibition assays. Cells were diluted 2-fold with serum-free RPMI media containing 2X inhibitor or vehicle control (0.5% DMSO and 5% FBS final). Inhibitor treatments were carried out for 1 hr at 37°C, and to remove unbound inhibitor, cells were immediately washed three times (SUP-B15 and PBMCs) or six times (MOLT-4) with D-PBS for 1 hr time points or RPMI media containing 5% FBS for subsequent time points. Cells were incubated at 37°C for the duration of the time course and washed two times in D-PBS to remove serum upon harvest. The cell pellets were flash-frozen in liquid N2 prior to storage at −80°C.
(§2) Cell pellets were thawed and incubated for 30 min on ice in non-denaturing lysis buffer (20 mM Tris, pH 8.0, 5 mM EDTA) or RIPA buffer that contained cOmplete^TM EDTA-free inhibitor cocktail (Roche, Pleasanton, CA). Total protein concentration in supernatants was determined using a Bradford Protein Assay Kit (Thermo Scientific Pierce) or BCA Protein Assay Kit (Cell Signaling Technology), respectively, with BSA as the protein standard. Lysate activity assays were performed following 2-fold dilution of 0.1–0.4 mg/mL lysate into assay buffer as described above. […]

SUP-B15 cell line [3] = experiment: Cellular proteasome inhibition and recovery assay, SUP-B15; format: cell-based, human; conditions: SUP-B15, one-hour pulse, 24 hr time course
Experimental: as §1, §2

primary human PBMCs = experiment: Cellular proteasome inhibition and recovery assay, PBMCs; format: cell-based; conditions: primary human PBMCs from healthy donors, one-hour pulse, 24 hr
Experimental: as §1, §2

PSMB8 (LMP7) mRNA = experiment: qRT-PCR of PSMB8 (LMP7) mRNA after ONX 0914 pulse treatment; format: cell-based, human; conditions: SUP-B15, MOLT-4 and PBMCs after one-hour pulse, normalized to GAPDH
Experimental: as §1
Total RNA was extracted from cells using the RNeasy Plus Mini kit (Qiagen, Germantown, MD). The quantity and quality of RNA was confirmed by absorption measurements at 260 and 280 nm. […] Efficiencies for each primer/probe set were calculated from a serial dilution of Human Reference Total RNA (Agilent) and were >95%. Relative quantification of gene expression was calculated with the comparative cycle threshold method, normalizing for GAPDH expression levels.

Nrf1 = Nrf1 western blot after ONX 0914 pulse treatment; format: cell-based, human; conditions: RIPA lysates from the cell lines and PBMCs
Experimental: as §1, §2

[4] = tested on: rheumatoid arthritis mouse model; design: method as in Muchamuel et al., 2009; conditions: at a significantly lower dose than bortezomib or CFZ; ref Muchamuel et al., 2009; cited from earlier work
β5 = target: T2, β5 (Homo sapiens, UniProt P20618+P28074); experiment: MOLT-4 lysate proteasome activity assay, IC50, iso-VQA-ACC substrate; format: biochemical; conditions: commercial β5 substrate
T2 construct: For IC50 measurements with the MOLT-4 lysate; endogenous in cells; host or cells: MOLT-4 lysate
Experimental: Three lysates containing varied proteasome ratios (whole blood, PBMCs, and the MOLT-4 cell line) were assayed in the absence or presence of proteasome inhibitors as described above. Lysates were generated by washing cells in PBS and lysing the resulting cell pellet in a two-fold greater volume of cold lysis buffer (20 mM Tris, pH 8.0, 5 mM EDTA). Total protein concentration was determined using the BCA Protein Assay Kit (Thermo Scientific Pierce) with bovine serum albumin (BSA) as the protein standard.

[5] = iP over cP, Michaelis-Menten analysis

Ratio Vmax (i20S/c20S) [1]: 12
Ratio kcat/Km (i20S/c20S) [1]: 6.0
Molecule: CC(=O)N[C@@H](C)C(=O)N[C@@H](CC(N)=O)C(=O)N[C@@H](Cc1c[nH]c2ccccc12)C(=O)Nc1ccc2c(C)cc(=O)oc2c1 [Ac-ANW-AMC] (Ac-Ala-Asn-Trp-{AMC})

IC50 (LMP7 / β5): 53 nM
Molecule: CC(C)C[C@H](NC(=O)[C@H](CCc1ccccc1)NC(=O)CN1CCOCC1)C(=O)N[C@@H](Cc1ccccc1)C(=O)N[C@@H](CC(C)C)C(=O)[C@@]1(C)CO1 [CFZ, carfilzomib]

Molecule: NC(=O)Cc1cc(=O)oc2cc(NC(=O)[C@H](Cc3c[nH]c4ccccc34)NC(=O)[C@H](Cc3ccccc3)NC(=O)[C@H](Cc3c[nH]c4ccccc34)NC(=O)[C@@H](N)CCC(=O)O)ccc12 [EWFW-ACC] (H-EWFW-{ACC})
improvement in Km for the iP ([1]; compared to the parent substrate EWHW-ACC): 7 fold
Ratio Vmax (i20S/c20S) [1]: 16
Ratio kcat/Km (i20S/c20S) [1]: 4.0
selectivity at Vmax [1, 5]: 16 fold

Molecule: NC(=O)Cc1cc(=O)oc2cc(NC(=O)[C@H](Cc3c[nH]c4ccccc34)NC(=O)[C@H](Cc3c[nH]cn3)NC(=O)[C@H](Cc3c[nH]c4ccccc34)NC(=O)[C@@H](N)CCC(=O)O)ccc12 [EWHW-ACC] (H-EWHW-{ACC})
Ratio Vmax (i20S/c20S) [1]: 6.0
Ratio kcat/Km (i20S/c20S) [1]: 8.4
iP selectivity ([1]; iP over cP, 10 μM substrate concentration): 4.5 fold
selectivity at Vmax [1, 5]: 6 fold

selectivity at Vmax ([1]; iP and cP, direction not given): 2.0 fold
Molecule: Cc1cc(=O)oc2cc(NC(=O)[C@H](Cc3ccc(O)cc3)NC(=O)[C@@H](NC(=O)[C@H](CC(C)C)NC(=O)[C@H](CC(C)C)NC(=O)CCC(=O)O)C(C)C)ccc12 [LLVY-AMC] (Suc-LLVY-{AMC})
ability to distinguish iP and cP in defined mixtures of each proteasome ([1]; mixed ratios of purified proteasomes, 30 μM substrate): unable to distinguish between the two proteasomes

IC50 (LMP7 / β5): 256 nM
Molecule: COc1ccc(C[C@H](NC(=O)[C@H](C)NC(=O)CN2CCOCC2)C(=O)N[C@@H](Cc2ccccc2)C(=O)[C@]2(C)CO2)cc1 [ONX 0914]
global ubiquitinated protein level (immunoblot) (SUP-B15 cell line [2]): global accumulation of ubiquitinated protein
recovery of LMP7 activity after irreversible inhibition (SUP-B15 cell line [3]): rapid recovery
recovery of LMP7 activity after irreversible inhibition (primary human PBMCs): confirmed in primary human PBMCs
PSMB8 mRNA level (PSMB8 (LMP7) mRNA): increased PSMB8 mRNA levels
processed Nrf1 (p110) level (western blot) (Nrf1): accumulation of processed Nrf1 (p110)
disease progression [4]: attenuate disease progression

Ratio Vmax (i20S/c20S) [1]: 0.28
Ratio kcat/Km (i20S/c20S) [1]: 0.33
Molecule: Cc1cc(C(=O)N[C@H](C(=O)N[C@@H](CCC(N)=O)C(=O)N[C@@H](C)C(=O)Nc2ccc3c(CC(N)=O)cc(=O)oc3c2)C(C)C)no1 [iso-VQA-ACC]

Molecule: Ac-Trp-Leu-Ala-{AMC}
detection of β5 activity in MOLT-4 lysate (β5): unable to specifically detect proteasome activity
